In US20070191324A1, “Methods for treatment or prophylaxis of aldosterone-mediated pathogenic effects in a subject using an epoxy-steroidal aldosterone antagonist” (priority 1999, published 2007):

Tests used:
[1] = test system: patients with stage I-III hypertension; experiment: Fixed-dose eplerenone vs placebo, clinic and ambulatory BP, 12 weeks (Example D-13); format: in vivo, human
Text: Patients were reassessed using clinic and ambulatory BP at the end of 12 weeks of therapy.

[2] = test system: L-NAME/Angiotensin II/NaCl-treated rats; experiment: L-NAME/Angiotensin II/NaCl model of cardiac and renal injury (Example A-1); format: in vivo, Male Wistar rats
Experimental: Animals. Male Wistar rats (n=44), weighing 200 to 225 grams, and obtained from Charles River Laboratories (Wilmington, Mass.) were used in the study. All animals were housed in a room lighted 12 hours per day at an ambient temperature of 22±1° C. Animals were allowed one week to recover after arrival and had free access to Purina Lab Chow 5001 (Ralston Purina Inc, St. Louis, Mo.) and tap water until the initiation of the experiment. After initiation of the protocols, animals in all groups were placed in individual metabolic cages, handled and weighed daily. Twenty-four hour fluid intake, food intake and urine output were measured daily. […] On day 14 of L-NAME treatment, animals were decapitated, trunk blood was collected into chilled tubes containing ethylene diamine tetraacetic acid and the heart and kidneys were removed, blotted dry and immediately weighed. […] Drugs. Eplerenone was supplied by G.D. Searle Pharmaceuticals (St. […] Dexamethasone was dissolved in sesame oil and administered as a single subcutaneous dose (12 μg/kg/day) every day. This dose of dexamethasone has been reported to, maintain normal weight gain, glomerular filtration rate, and fasting plasma glucose and insulin levels in adrenalectomized rats. Stanton, B., Giebisch G et al. J. Clin. Invest 1985 75:1317-1326. The experiment was concluded on day 14 of L-NAME treatment. […] (Hou J et al. J. Clin. Invest 1995 96:2469-2477. […] This lower dose induced lesions in stroke-prone spontaneously hypertensive rats. (Rocha R et al. […] Dexamethasone, aldosterone and L-NAME were purchased from Sigma Chemical Co. (St. Louis, Mo.). […] Surgical Procedure. […] Bilateral adrenalectomy was performed using a dorsolumbar approach, making separate incisions on each side. […] No post operative deaths occurred. Assays and Analyses. Systolic blood pressure was measured in awake animals by tail-cuff plethysmography using a Natsume KN-210 manometer and tachometer (Peninsula Laboratories Inc, Belmont, Calif.). Rats were warmed at 37° C. for 10 minutes and allowed to rest quietly in a Lucite chamber before measurement of blood pressure. Urinary protein concentration was determined in urine collected on the last day of the experiment using the sulfosalicylic acid turbidity method. […] Plasma aldosterone concentration was determined using a standard radioimmunoassay-kit from Diagnostic Products Co. (Los Angeles, Calif.). Plasma renin activity (“PRA”) was determined by radioimmunoassay detection of generated angiotensin I (DiaSorin Inc., Stillwater, Minn.). Histology. Hearts were stained with collagen specific dye Sirius red for determination of fibrosis as reported elsewhere. (Young M et al. Am. J. Physiol 1995 269:[…]-[…]). Interstitial collagen was determined using an automated image analyzer. The hearts were also stained with hematoxylin and eosin for light microscopic analysis. Two or three slices of different sections of the heart containing both right and left ventricle were analyzed from each animal. […] Glomerular damage, when present, was characterized as the presence of either segmental or global sclerosis with ischemic or thrombotic changes. Renal arterial and arteriolar damage was categorized as the presence of fibrinoid necrosis of the vascular wall. The renal arterial and arteriolar profiles presenting damage were counted and the number of injured vessels per section was divided by the number of glomeruli in the same section in order to normalize for the amount of tissue examined. […] Statistical analysis. Data were tested for normality using the Kolmogorov-Smirnov test. Systolic blood pressure was analyzed using repeated measures-analysis of variance for time and treatment group. One-way analysis of variance was used for normally distributed data with one grouping variable. Post-hoc analysis was performed using Newman Keuls multiple-comparison test. Data that were not normally distributed were analyzed with the Kruskal-Wallis test. […]

[3] = test system: patients with mild-to-moderate hypertension; experiment: Eplerenone versus enalapril in essential hypertension, 12-month titration-to-effect (Example D-3); format: in vivo, human
Experimental: The study design is illustrated in FIG. D-6. Patients with mild-to-moderate hypertension (diastolic blood pressure [DBP]≧95 mmHg and <110 mmHg) were randomized to receive initially EPL 50 mg QD (n=253) or ENAL 10 mg QD (n=246). If DBP ≧90 mmHg at Weeks 4, 8, 12, 16, or 20, the dose of study medication was up-titrated incrementally to EPL 100 mg and 200 mg QD, or ENAL 20 mg and 40 mg QD. […] At 24 wks and 12 months, changes in BP, RAAS hormone profile, urinary albumin excretion (urinary albumin: creatinine ratio [UACR]), laboratory tests, safety, and adverse events (AEs) were assessed.

[4] = Week 24, EPL 50-200 mg QD, ENAL 10-40 mg QD titrated

Compound: COC(=O)[C@@H]1CC2=CC(=O)CC[C@]2(C)[C@@]23O[C@@H]2C[C@@]2(C)[C@@H](CC[C@@]24CCC(=O)O4)[C@H]13 [Eplerenone, Pregn-4-ene-7,21-dicarboxylic acid, 9,11-epoxy-17-hydroxy-3-oxo-, γ-lactone, methyl ester, (7α, 11α, 17β)-]
- Δ Ambulatory BP, diastolic ([1]; 25 mg QD): −4.4 mmHg
- Δ Ambulatory BP, systolic ([1]; 25 mg QD): −6.4 mmHg
- Δ Clinic BP, diastolic ([1]; 25 mg QD): −3.7 mmHg
- Δ Clinic BP, systolic ([1]; 25 mg QD): −5.7 mmHg
- Δ Ambulatory BP, diastolic ([1]; 50 mg QD): −4.1 mmHg
- Δ Ambulatory BP, systolic ([1]; 50 mg QD): −6.8 mmHg
- Δ Clinic BP, diastolic ([1]; 50 mg QD): −4.6 mmHg
- Δ Clinic BP, systolic ([1]; 50 mg QD): −6.7 mmHg
- Δ Ambulatory BP, diastolic ([1]; 100 mg QD): −5.5 mmHg
- Δ Ambulatory BP, systolic ([1]; 100 mg QD): −9.1 mmHg
- Δ Clinic BP, diastolic ([1]; 100 mg QD): −6.3 mmHg
- Δ Clinic BP, systolic ([1]; 100 mg QD): −10.4 mmHg
- Δ Ambulatory BP, diastolic ([1]; 200 mg QD): −5.7 mmHg
- Δ Ambulatory BP, systolic ([1]; 200 mg QD): −10.3 mmHg
- Δ Clinic BP, diastolic ([1]; 200 mg QD): −5.4 mmHg
- Δ Clinic BP, systolic ([1]; 200 mg QD): −8.8 mmHg
- gynecomastia, menstrual abnormalities, breast pain ([1]; 25-200 mg QD): no reports of gynecomastia, menstrual abnormalities, or breast pain
- HW/BW (cardiac hypertrophy index) ([2]; end of experiment (day 14), Epl 100 mg/kg/day p.o., ALDO 40 μg/kg/day in adrenalectomized rats): significantly reduced cardiac hypertrophy
- SBP ([2]; end of experiment, Epl 100 mg/kg/day p.o., ALDO 40 μg/kg/day in adrenalectomized rats): not appreciably influenced
- urinary protein excretion (24 hour) ([2]; end of two-week treatment, eplerenone 100 mg/kg/day p.o.): prevented the development of proteinuria
- cardiac injury / myocardial necrosis (histopathology) ([2]; eplerenone 100 mg/kg/day p.o., vs L-NAME/Angiotensin II/NaCl): markedly reduced
- patients experiencing coughing ([3]; 12-month study): 2.4%
- patients experiencing hyperglycemia ([3]; 12-month study): 0.0%
- patients experiencing urinary tract infections (UTI) ([3]; 12-month study): 0.4%
- DBP change ([3]; 12 months): −13.3 mmHg
- SBP change ([3]; 12 months): −16.5 mmHg
- DBP change [3, 4]: −11.2 mmHg
- SBP change [3, 4]: −14.5 mmHg
- reduction in UACR ([3]; Week 24, patients with baseline UACR ≧30 mg/g): −61.5%
- safety and tolerability ([3]; in vivo): safe and well tolerated
